Measured values published in ChEMBL document CHEMBL1148680 (Bioorg Med Chem Lett, 2006).

Legend:
[1] = target: Voltage-gated inwardly rectifying potassium channel KCNH2 (Homo sapiens, UniProt Q12809); test: Inhibition of [3H]dofetilide binding to HERG expressed in HEK293 cells; type: cell-based
[2] = target: C-C chemokine receptor type 5 (Homo sapiens, UniProt P51681); test: Inhibition of [125I]MIP-1beta binding to CCR5 expressed in HEK293 cells; type: cell-based
hERG (KCNH2) [3] = target: T1, hERG (KCNH2) (Homo sapiens, UniProt Q12809); test: Inhibition of [3H]dofetilide binding to HERG expressed in HEK293 cells at 300 nM; type: cell-based; details: HEK293 cells that express hERG, probe [3H]dofetilide
T1 sequence (Q12809 whole entry): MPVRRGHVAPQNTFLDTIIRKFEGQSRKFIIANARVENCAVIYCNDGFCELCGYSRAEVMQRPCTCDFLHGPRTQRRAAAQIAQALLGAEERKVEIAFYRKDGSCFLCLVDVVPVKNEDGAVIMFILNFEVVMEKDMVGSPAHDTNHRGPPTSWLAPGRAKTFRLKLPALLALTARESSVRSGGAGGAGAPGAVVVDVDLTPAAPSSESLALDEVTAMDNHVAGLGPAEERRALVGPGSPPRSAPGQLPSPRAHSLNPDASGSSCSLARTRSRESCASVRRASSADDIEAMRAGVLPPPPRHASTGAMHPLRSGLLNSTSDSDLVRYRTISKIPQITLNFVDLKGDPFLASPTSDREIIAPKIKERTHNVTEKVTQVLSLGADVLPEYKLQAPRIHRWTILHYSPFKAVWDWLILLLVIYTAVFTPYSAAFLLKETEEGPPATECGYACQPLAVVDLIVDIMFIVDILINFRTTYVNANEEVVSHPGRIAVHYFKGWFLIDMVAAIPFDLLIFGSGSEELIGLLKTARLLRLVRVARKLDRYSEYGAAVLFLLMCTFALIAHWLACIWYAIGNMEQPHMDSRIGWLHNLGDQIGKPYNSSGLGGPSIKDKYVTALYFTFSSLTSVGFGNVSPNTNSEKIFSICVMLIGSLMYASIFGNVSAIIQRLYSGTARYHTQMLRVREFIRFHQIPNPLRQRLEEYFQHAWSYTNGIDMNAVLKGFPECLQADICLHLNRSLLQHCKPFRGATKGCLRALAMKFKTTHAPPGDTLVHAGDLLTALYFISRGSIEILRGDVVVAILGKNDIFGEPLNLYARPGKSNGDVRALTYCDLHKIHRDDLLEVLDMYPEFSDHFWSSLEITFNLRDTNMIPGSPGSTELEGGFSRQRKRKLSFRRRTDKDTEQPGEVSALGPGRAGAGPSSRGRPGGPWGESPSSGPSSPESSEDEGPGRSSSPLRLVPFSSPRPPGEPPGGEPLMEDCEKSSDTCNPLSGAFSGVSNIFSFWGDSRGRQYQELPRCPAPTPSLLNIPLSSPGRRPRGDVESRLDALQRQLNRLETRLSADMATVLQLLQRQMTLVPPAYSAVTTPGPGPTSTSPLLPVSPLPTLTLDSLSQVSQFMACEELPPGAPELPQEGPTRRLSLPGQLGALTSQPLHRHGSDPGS

[4] = tested on: Human immunodeficiency virus; test: Antiviral activity against HIV BaL in PM1 cell; type: functional; details: Human immunodeficiency virus 1, BaL
[5] = Distribution coefficient, log D of the compound; type: physicochemical; details: octanol/water
[6] = Dissociation constant, pKa of the compound; type: physicochemical
hERG (KCNH2) [7] = target: T1, hERG (KCNH2); test: Inhibition of [3H]dofetilide binding to HERG expressed in HEK293 cells at 100 nM; type: cell-based; details: HEK293 cells that express hERG, probe [3H]dofetilide

C-C chemokine receptor type 5, sequence (P51681 whole entry): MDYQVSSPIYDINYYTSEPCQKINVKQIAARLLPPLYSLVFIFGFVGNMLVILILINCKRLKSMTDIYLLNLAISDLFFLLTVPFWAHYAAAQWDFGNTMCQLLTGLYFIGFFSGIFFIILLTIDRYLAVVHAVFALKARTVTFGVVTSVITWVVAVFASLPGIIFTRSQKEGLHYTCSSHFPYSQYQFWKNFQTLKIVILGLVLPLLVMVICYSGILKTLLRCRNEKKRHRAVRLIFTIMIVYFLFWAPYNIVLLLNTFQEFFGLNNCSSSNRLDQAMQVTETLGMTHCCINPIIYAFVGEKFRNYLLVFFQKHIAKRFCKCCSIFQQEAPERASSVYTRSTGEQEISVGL
Voltage-gated inwardly rectifying potassium channel KCNH2, sequence (Q12809 whole entry): as the sequence (Q12809 whole entry) above

| IC50 [2] [nM] | SMILES | inhibition at 0.3 µM (hERG (KCNH2) [3]) [%] | IC90 [4] [nM] | other results |
| --- | --- | --- | --- | --- |
| 0.7 | O=C(Cc1ccc(F)cc1)NC1CCN(CC[C@H](NC(=O)C2CCC2)c2ccccc2)CC1 | – | – | – |
| 20 | O=C(N[C@@H](CCN1CCC(c2noc(Cc3ccccc3)n2)CC1)c1ccccc1)C1CCC1 | – | – | inhibition at 0.1 µM (hERG (KCNH2) [7]): 50% |
| 50 | Cc1nnc(C)n1C1CCN(CC[C@H](NC(=O)C2CCC2)c2ccccc2)CC1 | – | – | inhibition at 0.1 µM (hERG (KCNH2) [7]): 5% |

The remaining lines, values behind:

| SMILES | IC50 [2] [nM] | inhibition at 0.3 µM (hERG (KCNH2) [3]) [%] | IC90 [4] [nM] | other results |
| --- | --- | --- | --- | --- |
| CC(=O)N(CCOc1ccc(NS(C)(=O)=O)cc1)CCc1ccc(NS(C)(=O)=O)cc1 | – | – | – | Activity [1]: 0.021 µM |
| Cc1nnc(Cc2ccccc2)n1C1CCN(CC[C@H](NC(=O)C2CCC2)c2ccccc2)CC1 | 250 | – | – | – |
| Cc1nc(C2CCN(CC[C@H](NC(=O)C3CCC3)c3ccccc3)CC2)no1 | 70 | – | – | – |
| Cc1nnc(C(C)C)n1C1CC2CCC(C1)N2CC[C@H](NC(=O)CCC(F)(F)F)c1ccccc1 (stereo partly drawn) | – | 14 | 14 | logD [5]: 1.8 |
| Cc1nc2ccccc2n1C1CC2CCC(C1)N2CC[C@H](NC(=O)C1CCC1)c1ccccc1 (stereo partly drawn) | – | 80 | – | pKa [6]: 7.8 |
| Cc1nc2ccccc2n1C1CC2COCC(C1)N2CC[C@H](NC(=O)C1CCC1)c1ccccc1 (stereo partly drawn) [OXOGRANATANE] | 39 | 70 | – | pKa [6]: 6 |
| Cc1nnc(C(C)C)n1C1CC2CCC(C1)N2CC[C@H](NC(=O)C1CCCC1)c1ccccc1 (stereo partly drawn) | – | 18 | 2 | logD [5]: 2.1 |
| Cc1nnc(C)n1C1CC2CCC(C1)N2CC[C@H](NC(=O)C1CCC1)c1ccccc1 (stereo partly drawn) | – | – | 13 | inhibition at 0.1 µM (hERG (KCNH2) [7]): 10% |
| Cc1nnc(C(C)C)n1[C@@H]1C[C@H]2CC[C@@H](C1)N2CC[C@H](NC(=O)C1CCC(F)(F)CC1)c1ccccc1 [MARAVIROC] | – | – | – | logD [5]: 2.1 |
| Cc1nnc(C(C)C)n1[C@H]1C[C@H]2CC[C@@H](C1)N2CC[C@H](NC(=O)C1CCC(F)(F)CC1)c1ccccc1 [MARAVIROC] | – | – | 2 | – |
| Cc1nnc(C(C)C)n1C1CC2CCC(C1)N2CC[C@H](NC(=O)C1CCC1)c1ccccc1 (stereo partly drawn) | – | 30 | 8 | inhibition at 0.1 µM (hERG (KCNH2) [7]): 14%; logD [5]: 1.6 |
| O=C(N[C@@H](CCN1CCC(n2cnc(Cc3ccccc3)n2)CC1)c1ccccc1)C1CCC1 | 5 | – | – | – |
